{
  "source": "paper PMC8330742",
  "about": "“New benzothieno[2,3-c]pyridines as non-steroidal CYP17 inhibitors: design, synthesis, anticancer screening, apoptosis induction, and in silico ADME profile studies” (Journal of Enzyme Inhibition and Medicinal Chemistry, 2021)",
  "key": {"MDA-MB-468": {"system": "MDA-MB-468", "assay": "NCI-60 SRB screen;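 as to IC50: half-maximal inhibitory concentration read as cell viability unlike GI50 net growth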", "assay_type": "cell-based, human", "details": "MDA-MB-468"}, "DU-145": {"system": "DU-145", "assay": "NCI-60 SRB screen", "assay_type": "cell-based, human", "details": "DU-145"}, "MCF7": {"system": "MCF7", "assay": "NCI-60 SRB screen", "assay_type": "cell-based, human"}, "SK-OV-3": {"system": "SK-OV-3", "assay": "NCI-60 SRB screen", "assay_type": "cell-based, human", "details": "SK-OV-3"}, "RPMI-8226": {"system": "RPMI-8226", "assay": "NCI-60 SRB screen", "assay_type": "cell-based", "details": "RPMI-8226"}, "U251": {"system": "U251", "assay": "NCI-60 SRB screen", "assay_type": "cell-based, human", "details": "U251, five dose"}, "PC-3": {"system": "PC-3", "assay": "NCI-60 SRB screen", "assay_type": "cell-based, human", "details": "PC-3"}, "SF-539": {"system": "SF-539", "assay": "NCI-60 SRB screen", "assay_type": "cell-based, human", "details": "SF-539, five dose"}, "PC-3 cells": {"system": "PC-3 cells", "assay": "Cell cycle analysis (propidium iodide, flow cytometer)", "assay_type": "cell-based, human", "details": "PC-3, 2.34 µM, 24 h", "protocol": "The prostate PC-3 cells were placed in a six-well plate at 1 × 10^5 conc. of cells/well, then incubated for 24 h. The cells were treated with 2.34 µM of compound 5c or (0.1% DMSO) for 24 h. Thereafter, cells were collected and fixed for 12 h using ice-cold 70% ethanol at 4 °C. Then, ethanol was removed, and the cells were washed with cold Phosphate Buffer Saline (PBS) and incubated for 30 min at 37 °C in 0.5 ml of PBS. The cells were stained for 30 min with propidium iodide in the dark. The flow cytometer was used to detect DNA contents."}, "BT-549": {"system": "BT-549", "assay": "NCI-60 SRB screen", "assay_type": "cell-based, human", "details": "BT-549"}, "SNB-75": {"system": "SNB-75", "assay": "NCI-60 SRB screen", "assay_type": "cell-based, human", "details": "SNB-75, five dose"}, "A498": {"system": "A498", "assay": "NCI-60 SRB screen", "assay_type": "cell-based, human", "details": "A498"}, "MDA-MB-231/ATCC": {"system": "MDA-MB-231/ATCC", "assay": "NCI-60 SRB screen", "assay_type": "cell-based, human"}, "T-47D": {"system": "T-47D", "assay": "NCI-60 SRB screen", "assay_type": "cell-based, human"}, "OVCAR-5": {"system": "OVCAR-5", "assay": "NCI-60 SRB screen", "assay_type": "cell-based, human", "details": "OVCAR-5"}, "[1]": {"system": "renal cancer cell line (UO-31)", "assay": "MTT cytotoxicity assay", "assay_type": "cell-based, human", "protocol": "(§1) The MTT method for monitoring in vitro cytotoxicity was used with multiwell plates. Three human cell lines, namely prostate cancer cell line (PC-3), renal cancer cell line (UO-31), and breast cancer cell line (MCF-7) were obtained from the American Type Culture Collection ATCC, Manassas, VA, USA). The cells were trypsinized and seeded in 96 well plates with a density of 1.2 − 1.8 × 10,000 cells/well for 24 h at 37 °C. After treating the cells with five concentrations of compound 5c (0.01, 0.1, 1, 10, 100 µM), an MTT solution (Sigma Co., St. Louis, MO, USA) (5 mg/mL in phosphate buffer solution) was applied to each well and […]. The plates were cultivated in 5% CO2 for 4 h at 37 °C. Successively, the remaining formazan crystals were dissolved in 100 µl of DMSO, and the absorbance was determined with the ROBONIK P2000 spectrophotometer at a wavelength of 570 nm. The obtained values were analysed using Gen5 software (BioTek, UK). The proliferation percentage in each treated cell line was standardised based on their control wells. Both tests have been conducted in triplicate. The IC50 values were calculated using sigmoidal dose-response curve fitting models. […] Each test included a blank containing a complete medium without cells."}, "[2]": {"system": "prostate cancer cell line (PC-3)", "assay": "MTT cytotoxicity assay", "assay_type": "cell-based, human", "protocol": "as §1"}, "[3]": {"system": "breast cancer cell line (MCF-7)", "assay": "MTT cytotoxicity assay", "assay_type": "cell-based, human", "protocol": "as §1"}, "SNB-19": {"system": "SNB-19", "assay": "NCI-60 SRB screen", "assay_type": "cell-based", "details": "SNB-19, five dose"}, "[4]": {"details": "Homo sapiens, single dose 10^−5 M, read-out: Growth inhibition (%)"}, "[5]": {"details": "Homo sapiens, MDA-MB-231/ATCC, five dose"}},
  "data": [
    {"compound": "N#CC1C(=O)NC(c2ccccc2[N+](=O)[O-])c2sc3c(F)cccc3c21", "note": "(stereo not shown) [Compound 5c, 4-Cyano-8-fluoro-1-(2-nitrophenyl)-1,2-dihydro[1]benzothieno[2,3-c] pyridin-3(4H)-one]", "values": [
      {"measurement": "GI50", "setting": "MDA-MB-468; Homo sapiens, five dose", "result": 0.15, "unit": "µM"},
      {"measurement": "IC50", "setting": "MDA-MB-468; Homo sapiens, five dose", "result": 0.24, "unit": "µM"},
      {"measurement": "inhibition at 10 µM", "setting": "MDA-MB-468; [4]", "result": 149, "unit": "%"},
      {"measurement": "TGI", "setting": "MDA-MB-468; five dose", "result": 0.65, "unit": "µM"},
      {"measurement": "TGI", "setting": "DU-145; five dose", "result": 100, "unit": "µM"},
      {"measurement": "GI50", "setting": "DU-145; Homo sapiens, five dose", "result": 10.5, "unit": "µM"},
      {"measurement": "IC50", "setting": "DU-145; Homo sapiens, five dose", "result": 19.1, "unit": "µM"},
      {"measurement": "inhibition at 10 µM", "setting": "DU-145; [4]", "result": 10.1, "unit": "%"},
      {"measurement": "inhibition at 10 µM", "setting": "MCF7; Homo sapiens, MCF-7, single dose 10^−5 M, read-out: Growth inhibition (%)", "result": 76.4, "unit": "%"},
      {"measurement": "GI50", "setting": "MCF7; Homo sapiens, five dose", "result": 0.26, "unit": "µM"},
      {"measurement": "IC50", "setting": "MCF7; Homo sapiens, five dose", "result": 0.55, "unit": "µM"},
      {"measurement": "TGI", "setting": "MCF7; five dose", "result": 10.00, "unit": "µM"},
      {"measurement": "GI50", "setting": "SK-OV-3; Homo sapiens, five dose", "result": 12, "unit": "µM"},
      {"measurement": "IC50", "setting": "SK-OV-3; Homo sapiens, five dose", "result": 44.7, "unit": "µM"},
      {"measurement": "inhibition at 10 µM", "setting": "SK-OV-3; [4]", "result": 28.2, "unit": "%"},
      {"measurement": "TGI", "setting": "SK-OV-3; five dose", "result": 100, "unit": "µM"},
      {"measurement": "GI50", "setting": "RPMI-8226; Homo sapiens, five dose", "result": 10.6, "unit": "µM"},
      {"measurement": "IC50", "setting": "RPMI-8226; Homo sapiens, five dose", "result": 34.7, "unit": "µM"},
      {"measurement": "LC50", "setting": "RPMI-8226; Homo sapiens, five dose", "result": "> 100", "unit": "µM"},
      {"measurement": "inhibition at 10 µM", "setting": "RPMI-8226; [4]", "result": 58.8, "unit": "%"},
      {"measurement": "TGI", "setting": "RPMI-8226; five dose", "result": 100, "unit": "µM"},
      {"measurement": "GI50", "setting": "U251; Homo sapiens, U-251", "result": 2.5, "unit": "µM"},
      {"measurement": "IC50", "setting": "U251; Homo sapiens, U-251", "result": 12.6, "unit": "µM"},
      {"measurement": "TGI", "setting": "U251", "result": 100, "unit": "µM"},
      {"measurement": "GI50", "setting": "PC-3; Homo sapiens, five dose", "result": 13.6, "unit": "µM"},
      {"measurement": "IC50", "setting": "PC-3; Homo sapiens, five dose", "result": 25.1, "unit": "µM"},
      {"measurement": "inhibition at 10 µM", "setting": "PC-3; [4]", "result": 20, "unit": "%"},
      {"measurement": "TGI", "setting": "PC-3; five dose", "result": 100, "unit": "µM"},
      {"measurement": "GI50", "setting": "SF-539; Homo sapiens", "result": 23, "unit": "µM"},
      {"measurement": "IC50", "setting": "SF-539; Homo sapiens", "result": 46.8, "unit": "µM"},
      {"measurement": "TGI", "setting": "SF-539", "result": 100, "unit": "µM"},
      {"measurement": "DNA content (%) G0-G1", "setting": "PC-3 cells", "result": 49.61, "unit": "%"},
      {"measurement": "DNA content (%) G2/M", "setting": "PC-3 cells", "result": 6.21, "unit": "%"},
      {"measurement": "DNA content (%) Pre-G1", "setting": "PC-3 cells", "result": 42.55, "unit": "%"},
      {"measurement": "DNA content (%) S", "setting": "PC-3 cells", "result": 44.18, "unit": "%"},
      {"measurement": "TGI", "setting": "BT-549; five dose", "result": 100, "unit": "µM"},
      {"measurement": "GI50", "setting": "BT-549; Homo sapiens, five dose", "result": 16.5, "unit": "µM"},
      {"measurement": "IC50", "setting": "BT-549; Homo sapiens, five dose", "result": 72.4, "unit": "µM"},
      {"measurement": "inhibition at 10 µM", "setting": "BT-549; [4]", "result": 10.8, "unit": "%"},
      {"measurement": "GI50", "setting": "SNB-75; Homo sapiens", "result": 6.12, "unit": "µM"},
      {"measurement": "IC50", "setting": "SNB-75; Homo sapiens", "result": "> 100", "unit": "µM"},
      {"measurement": "TGI", "setting": "SNB-75", "result": 100, "unit": "µM"},
      {"measurement": "TGI", "setting": "A498; five dose", "result": 5.98, "unit": "µM"},
      {"measurement": "GI50", "setting": "A498; Homo sapiens, five dose", "result": 1.32, "unit": "µM"},
      {"measurement": "IC50", "setting": "A498; Homo sapiens, five dose", "result": 3.09, "unit": "µM"},
      {"measurement": "inhibition at 10 µM", "setting": "A498; [4]", "result": 161, "unit": "%"},
      {"measurement": "inhibition at 10 µM", "setting": "MDA-MB-231/ATCC; Homo sapiens, MDA-MB-231, MDAMB231/ATCC, single dose 10^−5 M, read-out: Growth inhibition (%)", "result": 24.5, "unit": "%"},
      {"measurement": "GI50", "setting": "MDA-MB-231/ATCC; [5]", "result": 11.6, "unit": "µM"},
      {"measurement": "IC50", "setting": "MDA-MB-231/ATCC; [5]", "result": 33.1, "unit": "µM"},
      {"measurement": "TGI", "setting": "MDA-MB-231/ATCC; MDA-MB-231/ATCC, five dose", "result": 100, "unit": "µM"},
      {"measurement": "GI50", "setting": "T-47D; Homo sapiens, T47D, five dose", "result": 0.32, "unit": "µM"},
      {"measurement": "IC50", "setting": "T-47D; Homo sapiens, T47D, five dose", "result": "> 100", "unit": "µM"},
      {"measurement": "inhibition at 10 µM", "setting": "T-47D; Homo sapiens, T47D, single dose 10^−5 M, read-out: Growth inhibition (%)", "result": 97.5, "unit": "%"},
      {"measurement": "TGI", "setting": "T-47D; five dose", "result": 100, "unit": "µM"},
      {"measurement": "GI50", "setting": "OVCAR-5; Homo sapiens, five dose", "result": 0.73, "unit": "µM"},
      {"measurement": "IC50", "setting": "OVCAR-5; Homo sapiens, five dose", "result": 3.39, "unit": "µM"},
      {"measurement": "inhibition at 10 µM", "setting": "OVCAR-5; [4]", "result": 115, "unit": "%"},
      {"measurement": "TGI", "setting": "OVCAR-5; five dose", "result": 100, "unit": "µM"},
      {"measurement": "potency compared to staurosporine", "setting": "[1]", "result": "higher potency"},
      {"measurement": "potency compared to staurosporine", "setting": "[2]", "result": "higher potency"},
      {"measurement": "potency relative to abiraterone", "setting": "[2]", "result": "fourfold"},
      {"measurement": "IC50", "setting": "[2]; Homo sapiens", "result": 2.08, "unit": "µM"},
      {"measurement": "potency compared to staurosporine", "setting": "[3]", "result": "half potency"},
      {"measurement": "GI50", "setting": "SNB-19; Homo sapiens", "result": 24.6, "unit": "µM"},
      {"measurement": "IC50", "setting": "SNB-19; Homo sapiens", "result": 44.7, "unit": "µM"},
      {"measurement": "LC50", "setting": "SNB-19; Homo sapiens", "result": "> 100", "unit": "µM"},
      {"measurement": "TGI", "setting": "SNB-19", "result": 100, "unit": "µM"}
    ]}
  ]
}
